For ten molecules, MIC results are on record in US12084445B2, “Broad-spectrum carbapenems” (VenatoRx Pharmaceuticals, Inc., priority 2018, dated 2024).

Common to all, as to type: cell-based
Experiment [1] relates to P. aeruginosa ΔmexAB-OprM (an efflux pump knockout). The experiment in a line: broth microdilution MIC assay, P. aeruginosa ΔmexAB-OprM. The settings on record: Pseudomonas aeruginosa, 20 h, read-out: P. aeruginosa ΔmexAB-OprM MIC. As for the experimental part: (§1) To determine the ability of test compounds to potentiate the inhibition of the growth of bacterial strains, classic cell-based broth microdilution MIC assays were employed. MIC assays are performed according to CLSI methods except where otherwise noted (CLSI, 2011 and CLSI, 2009). The reference strains S. aureus ATCC 29213 (methicillin sensitive), S. aureus ATCC 33591 (methicillin-resistant), E. coli ATCC 25922 (wild-type/QC strain), P. aeruginosa ATCC 27853 (wild-type/QC strain), and the clinical isolate P. aeruginosa PA 8 were used to determine the ability of the exemplary carbapenem compounds to inhibit bacterial growth. An expanded panel of methicillin resistance S. aureus (MRSA) and Pseudomonas was also used to determine the ability of exemplary carbapenem compounds to inhibit bacterial growth across a broader representation of those species. To determine activity in MRSA and in addition to S. aureus ATCC 33591, S. aureus USA 300, USA 400 and USA 600, some of the most common clones found to cause human infection, were also used. To further gauge the impact on the carbapenem compounds due to various resistance mechanisms in Pseudomonas, the following strains were included: P. aeruginosa 35151 (hyper-permeable strain), P. aeruginosa AmexAB-OprM (an efflux pump knockout), and P. aeruginosa PA 3 (a clinical isolate of reduced carbapenem susceptibility). Briefly, cryo-preserved bacterial cultures of clinical strains are streaked for isolation on appropriate agar medium, in this case Mueller Hinton II agar. Following incubation to allow formation of colonies, these plates are sealed with parafilm and stored refrigerated for up to two weeks. For preparation of assay inocula and to ensure low variability, at least 5 colonies are picked from the agar plates with an inoculating loop and aseptically transferred to a culture tube containing 3 mL of Mueller-Hinton Broth (supplemented with divalent cations to required levels based on Manufacturers' specification). The broth culture is grown for 3-5 hours at 37° C. with shaking at 200 rpm. Meanwhile, 2-fold serial dilutions of test compounds are conducted in a 96 well plate with a final volume of 75 μL per well at 2-fold the final desired concentration. After the dilution plates are set up the growing cultures are then diluted in a cuvette containing MH II broth and the optical density is measured at 600 nm. Inocula are diluted such that 75 μL of this culture in Mueller-Hinton Broth results in a starting bacterial concentration of 5×10^5 CFU/mL when added to the dilution plates. The plates are incubated 16-20 hours at 37° C. The MIC is read visually as the lowest concentration well with no bacterial growth.
(§2) Representative results are shown in Tables 3, 4, and 5 where A represents an MIC>32 μg/mL, B represents an MIC between 8 and 32 μg/mL inclusive, C represents an MIC between 1 and 4 μg/mL inclusive, and D represents an MIC of <1 μg/mL. NT=Not Tested.

In experiment [2] the test system is E. coli ATCC 25922 (wild-type/QC strain). Description: broth microdilution MIC assay, E. coli ATCC 25922. Particulars: Escherichia coli, ATCC25922; Table 4; E. coli 25922; read-out: E. coli 25922 MIC. The essentials:
(§3)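 CLSI broth microdilution in cation-supplemented Mueller-Hinton broth, starting inoculum 5×10^5 CFU/mL, 2-fold compound dilutions. Incubation 16-20 h at 37 °C; MIC read visually as the lowest concentration with no growth.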

Experiment [3] has as its system P. aeruginosa 35151 (hyper-permeable strain). The experiment in a line: broth microdilution MIC assay, P. aeruginosa 35151. Particulars: Pseudomonas aeruginosa, read-out: P. aeruginosa 35151 MIC. As for the experimental part:
as §1, §2

The test system of the next experiment is S. aureus USA600. Description: broth microdilution MIC assay, S. aureus USA 600. The settings on record: Staphylococcus aureus; Table 4; S. aureus USA600; read-out: S. aureus USA600 MIC. As for the experimental part: as §1, §2
In experiment [4] the test system is P. aeruginosa ATCC 27853 (wild-type/QC strain). The experiment in a line: broth microdilution MIC assay, P. aeruginosa ATCC 27853. The settings on record: Pseudomonas aeruginosa, ATCC27853; Table 5; P. aeruginosa 27853; read-out: P. aeruginosa 27853 MIC. A digest of the protocol: as §3
The subject of experiment [5] is S. aureus ATCC 33591 (methicillin-resistant). Description: broth microdilution MIC assay, S. aureus ATCC 33591. The settings on record: Staphylococcus aureus, ATCC33591; Table 4; S. aureus 33591; read-out: S. aureus 33591 MIC. A digest of the protocol: as §3
In a further experiment the test system is S. aureus USA 300. Description: broth microdilution MIC assay, S. aureus USA 300. The settings on record: Staphylococcus aureus; Table 4; S. aureus USA300; read-out: S. aureus USA300 MIC. As for the experimental part: as §1, §2

Each structure is given as a SMILES string.

As for `C[C@@H](O)[C@H]1C(=O)N2C(C(=O)O)=C(S[C@@H]3CCN(CC4CCNCC4(C)C)C3)[C@H](C)[C@H]12` (stereo partly drawn) [Example 65, (4R,5S,6S)-3-(((3R)-1-((3,3-dimethylpiperidin-4-yl)methyl)pyrrolidin-3-yl)thio)-6-((R)-1-hydroxyethyl)-4-methyl-7-oxo-1-azabicyclo[3.2.0]hept-2-ene-2-carboxylic acid], the MIC is 1 to 4 µg/mL in experiment [1]; less than 1 µg/mL in experiment [2]; less than 1 µg/mL in experiment [3]; 1 to 4 µg/mL in the experiment with S. aureus USA600; 8 to 32 µg/mL in experiment [4]; 1 to 4 µg/mL in experiment [5]. Further, the MIC in the experiment on S. aureus USA 300 is 1 to 4 µg/mL.
Turning to `CNC1CCC(CN2CC(SC3=C(C(=O)O)N4C(=O)[C@H]([C@@H](C)O)[C@H]4[C@H]3C)C2)CC1` (stereo partly drawn) [Example 66, (4R,5S,6S)-6-((R)-1-hydroxyethyl)-4-methyl-3-((1-(((1s,4S)-4-(methylamino)cyclohexyl)methyl)azetidin-3-yl)thio)-7-oxo-1-azabicyclo[3.2.0]hept-2-ene-2-carboxylic acid], the MIC in experiment [1] is 1 to 4 µg/mL; in experiment [2], less than 1 µg/mL; in experiment [3], less than 1 µg/mL; in the experiment on S. aureus USA600, 1 to 4 µg/mL; in experiment [4], 1 to 4 µg/mL; in experiment [5] it was 1 to 4 µg/mL. The MIC in the experiment with S. aureus USA 300 was 1 to 4 µg/mL.
`C[C@@H](O)[C@H]1C(=O)N2C(C(=O)O)=C(SC3CN(C[C@H]4CC[C@H](NC(=N)N)CC4)C3)[C@H](C)[C@H]12` [Example 67, (4R,5S,6S)-3-((1-(((1r,4R)-4-guanidinocyclohexyl)methyl)azetidin-3-yl)thio)-6-((R)-1-hydroxyethyl)-4-methyl-7-oxo-1-azabicyclo[3.2.0]hept-2-ene-2-carboxylic acid]: the MIC in experiment [1] was 1 to 4 µg/mL; in experiment [2], less than 1 µg/mL; in experiment [3], less than 1 µg/mL; in the experiment with S. aureus USA600, less than 1 µg/mL; in experiment [4], 1 to 4 µg/mL; in experiment [5], 1 to 4 µg/mL. Also, in the experiment on S. aureus USA 300, the MIC fell in the range of 1 to 4 µg/mL.
Consider `CN[C@H]1CC[C@H](CN2CC(SC3=C(C(=O)O)N4C(=O)[C@H]([C@@H](C)O)[C@H]4[C@H]3C)C2)CC1` [Example 68, (4R,5S,6S)-6-((R)-1-hydroxyethyl)-4-methyl-3-((1-(((1r,4R)-4-(methylamino)cyclohexyl)methyl)azetidin-3-yl)thio)-7-oxo-1-azabicyclo[3.2.0]hept-2-ene-2-carboxylic acid], for which the MIC is 1 to 4 µg/mL in experiment [1]; less than 1 µg/mL in experiment [2]; less than 1 µg/mL in experiment [3]; 1 to 4 µg/mL in the experiment on S. aureus USA600; 1 to 4 µg/mL in experiment [4]; 1 to 4 µg/mL in experiment [5]. Also, the MIC in the experiment with S. aureus USA 300 lay in the range of 1 to 4 µg/mL.
Take `CCN[C@H]1CC[C@H](CN2CC(SC3=C(C(=O)O)N4C(=O)[C@H]([C@@H](C)O)[C@H]4[C@H]3C)C2)CC1` [Example 69, (4R,5S,6S)-3-((1-(((1r,4R)-4-(ethylamino)cyclohexyl)methyl)azetidin-3-yl)thio)-6-((R)-1-hydroxyethyl)-4-methyl-7-oxo-1-azabicyclo[3.2.0]hept-2-ene-2-carboxylic acid]: the MIC in experiment [1] is 1 to 4 µg/mL; in experiment [2], less than 1 µg/mL; in experiment [3] it was less than 1 µg/mL; with S. aureus USA600 it was 1 to 4 µg/mL; in experiment [4], 1 to 4 µg/mL; in experiment [5], 1 to 4 µg/mL. Further, the MIC in the experiment with S. aureus USA 300 is 1 to 4 µg/mL.
On to `CCN[C@H]1CC[C@@H](CN2CC(SC3=C(C(=O)O)N4C(=O)[C@H]([C@@H](C)O)[C@H]4[C@H]3C)C2)CC1` [Example 70, (4R,5S,6S)-3-((1-(((1s,4S)-4-(ethylamino)cyclohexyl)methyl)azetidin-3-yl)thio)-6-((R)-1-hydroxyethyl)-4-methyl-7-oxo-1-azabicyclo[3.2.0]hept-2-ene-2-carboxylic acid], for which the MIC in experiment [1] is 1 to 4 µg/mL; in experiment [2], less than 1 µg/mL; in experiment [3], less than 1 µg/mL; in the experiment on S. aureus USA600, 1 to 4 µg/mL; in experiment [4] it was 1 to 4 µg/mL; in experiment [5] it was 1 to 4 µg/mL. For the same molecule, the MIC in the experiment with S. aureus USA 300 is 1 to 4 µg/mL.
`C[C@@H](O)[C@H]1C(=O)N2C(C(=O)O)=C(SC3CN(CCC4CCN(C(=N)N)CC4)C3)[C@H](C)[C@H]12` [Example 71, (4R,5S,6S)-3-((1-(2-(1-carbamimidoylpiperidin-4-yl)ethyl)azetidin-3-yl)thio)-6-((R)-1-hydroxyethyl)-4-methyl-7-oxo-1-azabicyclo[3.2.0]hept-2-ene-2-carboxylic acid]: the MIC was 1 to 4 µg/mL in experiment [1]; less than 1 µg/mL in experiment [2]; less than 1 µg/mL in experiment [3]; less than 1 µg/mL in the experiment with S. aureus USA600; 1 to 4 µg/mL in experiment [4]; 1 to 4 µg/mL in experiment [5]. The MIC with S. aureus USA 300 lay within 1 to 4 µg/mL.
On to `C[C@@H](O)[C@H]1C(=O)N2C(C(=O)O)=C(SC3CN(C[C@H]4CC[C@H](N(C)C(=N)N)CC4)C3)[C@H](C)[C@H]12` [Example 72, (4R,5S,6S)-6-((R)-1-hydroxyethyl)-4-methyl-3-((1-(((1r,4R)-4-(1-methylguanidino)cyclohexyl)methyl)azetidin-3-yl)thio)-7-oxo-1-azabicyclo[3.2.0]hept-2-ene-2-carboxylic acid], for which the MIC is 1 to 4 µg/mL in experiment [1]; less than 1 µg/mL in experiment [2]; less than 1 µg/mL in experiment [3]; less than 1 µg/mL in the experiment with S. aureus USA600; 8 to 32 µg/mL in experiment [4]; 1 to 4 µg/mL in experiment [5]. In the experiment with S. aureus USA 300, the MIC was in the range of 1 to 4 µg/mL.
Regarding `C[C@@H](O)[C@H]1C(=O)N2C(C(=O)O)=C(SC3CN(C[C@H]4CC[C@@H](NC(=N)N)CC4)C3)[C@H](C)[C@H]12` [Example 73, (4R,5S,6S)-3-((1-(((1s,4S)-4-guanidinocyclohexyl)methyl)azetidin-3-yl)thio)-6-((R)-1-hydroxyethyl)-4-methyl-7-oxo-1-azabicyclo[3.2.0]hept-2-ene-2-carboxylic acid], the MIC was less than 1 µg/mL in experiment [1]; less than 1 µg/mL in experiment [2]; less than 1 µg/mL in experiment [3]; less than 1 µg/mL in the experiment on S. aureus USA600; 1 to 4 µg/mL in experiment [4]; 1 to 4 µg/mL in experiment [5]. Also, the MIC in the experiment on S. aureus USA 300 lay in the range of 1 to 4 µg/mL.
Consider `C[C@@H](O)[C@H]1C(=O)N2C(C(=O)O)=C(SC3CN(C[C@H]4CC[C@@H](N(C)C(=N)N)CC4)C3)[C@H](C)[C@H]12` [Example 74, (4R,5S,6S)-6-((R)-1-hydroxyethyl)-4-methyl-3-((1-(((1s,4S)-4-(1-methylguanidino)cyclohexyl)methyl)azetidin-3-yl)thio)-7-oxo-1-azabicyclo[3.2.0]hept-2-ene-2-carboxylic acid], for which the MIC is 1 to 4 µg/mL in experiment [1]; less than 1 µg/mL in experiment [2]; less than 1 µg/mL in experiment [3]; 1 to 4 µg/mL with S. aureus USA600; 8 to 32 µg/mL in experiment [4]; 1 to 4 µg/mL in experiment [5]. In the experiment on S. aureus USA 300, the MIC was 1 to 4 µg/mL.
